Results published in patent US5776944A, “7-(4-aminomethyl-3-methyloxyiminopyrroplidin-1-yl)-1-cyclopropyl-6-flu oro-4-oxo-1,4-dihydro-1,8-naphthyridine-3-carboxylic acid and the process for the preparation thereof” (LG Chemical Ltd., priority 1994, dated 1998).
≈ marks a conversion by molar mass, not a printed value. Read-outs that look alike come from different tables or passages of the source.

How the values were obtained:
[1] = Chemical stability under heating
Description: The anhydride and each of the hydrates was introduced into a glass vial and maintained at 70° C.

[2] = tested on: Staphylococcus aureus 6538p; experiment: In vitro antibacterial activity (MIC, agar dilution), Biological Example 1; assay type: cell-based; settings: 18 h, Table 25, read-out: Minimum Inhibitory Concentration
[3] = tested on: Staphylococcus aureus giorgio; experiment: as above; assay type: cell-based; settings: 18 h, Table 25, read-out: Minimum Inhibitory Concentration
[4] = tested on: Staphylococcus aureus 77; experiment: as above; assay type: cell-based; settings: 18 h; Staphylococcus aureus 77, Table 25; read-out: Minimum Inhibitory Concentration
[5] = tested on: Staphylococcus aureus 241; experiment: as above; assay type: cell-based; settings: 18 h; Staphylococcus aureus 241, Table 25; read-out: Minimum Inhibitory Concentration
[6] = tested on: Staphylococcus epidermidis 887E; experiment: as above; assay type: cell-based; settings: 18 h, Table 25, read-out: Minimum Inhibitory Concentration
[7] = tested on: Staphylococcus epidermidis 178; experiment: as above; assay type: cell-based; settings: 18 h; Staphylococcus epidermidis 178, Table 25; read-out: Minimum Inhibitory Concentration
[8] = tested on: Streptococcus faecalis 29212; experiment: as above; assay type: cell-based; settings: Enterococcus faecalis, 18 h; Streptococcus faecalis 29212, Table 25; read-out: Minimum Inhibitory Concentration
[9] = tested on: Bacillus subtilis 6633; experiment: as above; assay type: cell-based; settings: 18 h; Bacillus subtilis 6633, Table 25; read-out: Minimum Inhibitory Concentration
[10] = tested on: Micrococcus luteus 9341; experiment: as above; assay type: cell-based; settings: 18 h; Micrococcus luteus 9341, Table 25; read-out: Minimum Inhibitory Concentration
[11] = tested on: Escherichia coli 10536; experiment: as above; assay type: cell-based; settings: read-out: Minimum Inhibitory Concentration
[12] = tested on: Escherichia coli 3190Y; experiment: as above; assay type: cell-based; settings: 18 h, Table 25, read-out: Minimum Inhibitory Concentration
[13] = tested on: Escherichia coli 851E; experiment: as above; assay type: cell-based; settings: 18 h, Table 25, read-out: Minimum Inhibitory Concentration
[14] = tested on: Escherichia coli TEM3 3455E; experiment: microbe, parasite or virus in culture; assay type: cell-based; settings: TEM33455E, 18 h, read-out: Minimum Inhibitory Concentration
[15] = tested on: Escherichia coli TEM5 3739E; experiment: microbe, parasite or virus in culture; assay type: cell-based; settings: TEM53739E, 18 h, read-out: Minimum Inhibitory Concentration
[16] = tested on: Escherichia coli TEM9 2639E; experiment: microbe, parasite or virus in culture; assay type: cell-based; settings: TEM92639E, 18 h, read-out: Minimum Inhibitory Concentration
[17] = tested on: Pseudomonas aeruginosa 1912E; experiment: In vitro antibacterial activity (MIC, agar dilution), Biological Example 1; assay type: cell-based; settings: 18 h, read-out: Minimum Inhibitory Concentration
[18] = tested on: Pseudomonas aeruginosa 10145; experiment: as above; assay type: cell-based; settings: 18 h; Pseudomonas aeruginosa 10145, Table 25; read-out: Minimum Inhibitory Concentration
[19] = tested on: Acinetobacter calcoaceticus 15473; experiment: as above; assay type: cell-based; settings: read-out: Minimum Inhibitory Concentration
[20] = tested on: Citrobacter diversus 2046E; experiment: as above; assay type: cell-based; settings: Citrobacter koseri, 18 h, Table 25, read-out: Minimum Inhibitory Concentration
[21] = tested on: Enterobacter cloacae 1194E; experiment: microbe, parasite or virus in culture; assay type: cell-based; settings: 18 h, read-out: Minimum Inhibitory Concentration
[22] = tested on: Enterobacter cloacae P99; experiment: microbe, parasite or virus in culture; assay type: cell-based; settings: P99, 18 h, read-out: Minimum Inhibitory Concentration
[23] = tested on: Klebsiella aerogenes 1976E; experiment: In vitro antibacterial activity (MIC, agar dilution), Biological Example 1; assay type: cell-based; settings: 18 h, Table 25, read-out: Minimum Inhibitory Concentration
[24] = tested on: Klebsiella aerogenes 1082E; experiment: as above; assay type: cell-based; settings: 18 h, Table 25, read-out: Minimum Inhibitory Concentration
[25] = tested on: Salmonella typimurium 14028; experiment: as above; assay type: cell-based; settings: 18 h; Salmonella typimurium 14028, Table 25; read-out: Minimum Inhibitory Concentration
[26] = Pharmacokinetic test; assay type: in vivo; settings: rat, blood, 20 mg/kg, SD rats (male); for Cmax: read-out: Cmax (maximum blood concentration); for half-life: read-out: T1/2 (biological half life) (converted); for Tmax: read-out: Tmax (time showing maximum blood concentration); for bioavailability: printed in the IV line, read-out: F (bioavailability)
[27] = 18 h, Escherichia coli 10536, Table 25
[28] = Pseudomonas aeruginosa 1912E, Table 25
[29] = 18 h, Acinetobacter calcoaceticus 15473, Table 25
[30] = Acinetobacter calcoaceticus, 15473, 18 h

SMILES | MIC [2] | MIC [3] | MIC [4] | MIC [5] | MIC [6] | MIC [7] | MIC [8] | MIC [9] | MIC [10] | MIC [12] | MIC [13] | MIC [14] | MIC [15] | MIC [16] | MIC [18] | MIC [20] | MIC [21] | MIC [22] | MIC [23] | MIC [24] | further results
CON=C1CN(c2nc3c(cc2F)c(=O)c(C(=O)O)cn3C2CC2)CC1CN (stereo not shown) [Anhydrate, 7-(4-aminomethyl-3-methyloxyiminopyrrolidin-1-yl)-1-cyclopropyl-6-fluoro-4-oxo-1,4-dihydro-1,8-naphthyridine-3-carboxylic acid methanesulfonate anhydride] | – | – | – | – | – | – | – | – | – | – | – | – | – | – | – | – | – | – | – | – | thermal stability [1]: 99%; remaining at 336 h ([1]; thermal stability, 2 weeks, 70° C.): 97%; remaining at 672 h ([1]; thermal stability, 4 weeks, 70° C.): 95%
CC(C)(C)ON=C1CN(c2nc3c(cc2F)c(=O)c(C(=O)O)cn3C2CC2)CC1CN (stereo not shown) [Example 89, 7-(4-aminomethyl-3-t-butyloxyimino-pyrrolidin-1-yl)-1-cyclopropyl-6-fluoro-1,4-dihydro-4-oxo-1,8-naphthyridine-3-carboxylic acid] | ≤ 0.008 µg/mL | ≤ 0.008 µg/mL | ≤ 0.008 µg/mL | 1 µg/mL (≈ 2.32 µM) | ≤ 0.008 µg/mL | 0.5 µg/mL (≈ 1.16 µM) | 0.063 µg/mL (≈ 0.146 µM) | ≤ 0.008 µg/mL | 0.25 µg/mL (≈ 0.579 µM) | 0.016 µg/mL (≈ 0.0371 µM) | 0.063 µg/mL (≈ 0.146 µM) | 0.25 µg/mL (≈ 0.579 µM) | 0.13 µg/mL (≈ 0.301 µM) | 0.063 µg/mL (≈ 0.146 µM) | 2 µg/mL (≈ 4.64 µM) | 0.13 µg/mL (≈ 0.301 µM) | 0.13 µg/mL (≈ 0.301 µM) | 0.016 µg/mL (≈ 0.0371 µM) | 0.5 µg/mL (≈ 1.16 µM) | 0.25 µg/mL (≈ 0.579 µM) | MIC [11, 27]: 0.016 µg/mL (≈ 0.0371 µM); MIC [17, 28]: 2 µg/mL (≈ 4.64 µM); MIC [19, 29]: 0.031 µg/mL (≈ 0.0718 µM); MIC [25]: 0.13 µg/mL (≈ 0.301 µM); Cmax ([26]; PO): 4890 ± 2230 ng/mL; half-life ([26]; PO): 6.69 ± 2.78 h; Tmax ([26]; PO): 2.18 ± 0.77 h; bioavailability [26]: > 100%; half-life ([26]; IV): 2.29 ± 1.13 h
CON=C1CN(c2c(F)cc3c(=O)c(C(=O)O)cn(C4CC4)c3c2F)CC1CN (stereo not shown) [Example 177] | ≤ 0.008 µg/mL | ≤ 0.008 µg/mL | 0.016 µg/mL (≈ 0.0394 µM) | 0.5 µg/mL (≈ 1.23 µM) | ≤ 0.008 µg/mL | 1 µg/mL (≈ 2.46 µM) | 0.031 µg/mL (≈ 0.0763 µM) | ≤ 0.008 µg/mL | 0.063 µg/mL (≈ 0.155 µM) | ≤ 0.008 µg/mL | 0.031 µg/mL (≈ 0.0763 µM) | 0.25 µg/mL (≈ 0.615 µM) | 0.13 µg/mL (≈ 0.32 µM) | 0.063 µg/mL (≈ 0.155 µM) | 0.5 µg/mL (≈ 1.23 µM) | 0.031 µg/mL (≈ 0.0763 µM) | 0.063 µg/mL (≈ 0.155 µM) | 0.016 µg/mL (≈ 0.0394 µM) | 0.13 µg/mL (≈ 0.32 µM) | 0.063 µg/mL (≈ 0.155 µM) | MIC [11, 27]: ≤ 0.008 µg/mL; MIC [17, 28]: 0.5 µg/mL (≈ 1.23 µM); MIC [19, 29]: 0.13 µg/mL (≈ 0.32 µM); MIC [25]: 0.063 µg/mL (≈ 0.155 µM); Cmax ([26]; PO): 370 ± 110 ng/mL; half-life ([26]; PO): 3.93 ± 1.31 h; Tmax ([26]; PO): 0.51 ± 0.33 h; bioavailability [26]: 47.2%; half-life ([26]; IV): 1.92 ± 0.38 h
CON=C1CN(c2cc3c(cc2F)c(=O)c(C(=O)O)cn3C2CC2)CC1CN (stereo not shown) [Example 179, 7-(4-aminomethyl-3-methoxyiminopyrrolidin-1-yl)-1-cyclopronyl-6-fluoro-4-oxo-1,4-dihydroquinoline-3-carboxylic acid] | ≤ 0.008 µg/mL | 0.016 µg/mL (≈ 0.0412 µM) | 0.031 µg/mL (≈ 0.0798 µM) | 2 µg/mL (≈ 5.15 µM) | 0.016 µg/mL (≈ 0.0412 µM) | 2 µg/mL (≈ 5.15 µM) | 0.031 µg/mL (≈ 0.0798 µM) | ≤ 0.008 µg/mL | 0.13 µg/mL (≈ 0.335 µM) | ≤ 0.008 µg/mL | ≤ 0.008 µg/mL | 0.13 µg/mL (≈ 0.335 µM) | 0.063 µg/mL (≈ 0.162 µM) | 0.031 µg/mL (≈ 0.0798 µM) | 0.25 µg/mL (≈ 0.644 µM) | 0.031 µg/mL (≈ 0.0798 µM) | 0.031 µg/mL (≈ 0.0798 µM) | 0.008 µg/mL (≈ 0.0206 µM) | 0.13 µg/mL (≈ 0.335 µM) | 0.031 µg/mL (≈ 0.0798 µM) | MIC ([11]; Escherichia coli, 10536, 18 h): < 0.008 µg/mL; MIC ([17]; Pseudomonas aeruginosa, 1912E): 0.25 µg/mL (≈ 0.644 µM); MIC [19, 30]: 0.016 µg/mL (≈ 0.0412 µM); MIC [25]: 0.063 µg/mL (≈ 0.162 µM)
CON=C1CN(c2nc3c(cc2F)c(=O)c(C(=O)O)cn3C2CC2)CC1CN (stereo not shown) [Example 180, 7-(4-aminomethyl-3-methoxyiminonyrrolidin-1-yl)-1-cyclopropyl-6-fluoro-4-oxo-1,4-dihydro[1,8]naphthyridine-3-carboxylic acid] | ≤ 0.008 µg/mL | ≤ 0.008 µg/mL | ≤ 0.008 µg/mL | 2 µg/mL (≈ 5.14 µM) | ≤ 0.008 µg/mL | 2 µg/mL (≈ 5.14 µM) | 0.063 µg/mL (≈ 0.162 µM) | ≤ 0.008 µg/mL | 0.13 µg/mL (≈ 0.334 µM) | ≤ 0.008 µg/mL | ≤ 0.008 µg/mL | 0.25 µg/mL (≈ 0.642 µM) | 0.13 µg/mL (≈ 0.334 µM) | 0.031 µg/mL (≈ 0.0796 µM) | 0.25 µg/mL (≈ 0.642 µM) | 0.016 µg/mL (≈ 0.0411 µM) | 0.031 µg/mL (≈ 0.0796 µM) | ≤ 0.008 µg/mL | 0.13 µg/mL (≈ 0.334 µM) | 0.016 µg/mL (≈ 0.0411 µM) | MIC ([11]; Escherichia coli, 10536, 18 h): ≤ 0.008 µg/mL; MIC ([17]; Pseudomonas aeruginosa, 1912E): 0.25 µg/mL (≈ 0.642 µM); MIC [19, 30]: 0.0634 µg/mL (≈ 0.163 µM); MIC [25]: 0.031 µg/mL (≈ 0.0796 µM)
CC1COc2c(N3CCN(C)CC3)c(F)cc3c(=O)c(C(=O)O)cn1c23 (stereo not shown) [OFLX, ofloxacin, reference compound] | 0.25 µg/mL (≈ 0.692 µM) | 0.25 µg/mL (≈ 0.692 µM) | 0.25 µg/mL (≈ 0.692 µM) | 64 µg/mL (≈ 177 µM) | 0.25 µg/mL (≈ 0.692 µM) | 32 µg/mL (≈ 88.6 µM) | 2 µg/mL (≈ 5.53 µM) | 0.063 µg/mL (≈ 0.174 µM) | 2 µg/mL (≈ 5.53 µM) | 0.016 µg/mL (≈ 0.0443 µM) | 0.063 µg/mL (≈ 0.174 µM) | 0.5 µg/mL (≈ 1.38 µM) | 0.5 µg/mL (≈ 1.38 µM) | 0.063 µg/mL (≈ 0.174 µM) | 2 µg/mL (≈ 5.53 µM) | 0.063 µg/mL (≈ 0.174 µM) | 0.063 µg/mL (≈ 0.174 µM) | ≤ 0.008 µg/mL | 0.25 µg/mL (≈ 0.692 µM) | 0.063 µg/mL (≈ 0.174 µM) | MIC [11, 27]: 0.031 µg/mL (≈ 0.0858 µM); MIC ([17]; Pseudomonas aeruginosa, 1912E): 0.5 µg/mL (≈ 1.38 µM); MIC [19, 29]: 0.25 µg/mL (≈ 0.692 µM); MIC [25]: 0.13 µg/mL (≈ 0.36 µM)
